Experimental data from patent publication US7109244B2, “Compositions and methods comprising long-chain, straight-chain 2-amino-3-hydroxyalkanes” (priority 1997, dated 2006).

Columns and labels:
CCRF-SB = test: expanded in vitro screen, CCRF-SB; format: cell-based; settings: Homo sapiens, Leukemia
Description: (§1) An expanded in vitro screen was performed of spisulosine 285 against a series of different cell lines.

HT-29 [1] = test: expanded in vitro screen, HT-29; format: cell-based; settings: Homo sapiens; HT-29, Colon, solid
Description: as §1

PANC-1 = test: expanded in vitro screen, PANC-1; format: cell-based; settings: Homo sapiens; PANC-1, Pancreas, solid
Description: as §1

H9 = test: expanded in vitro screen, H9; format: cell-based; settings: Homo sapiens; H9, Lymphoma
Description: as §1

[2] = tested on: L1210 murine lymphocytic leukemia cells; test: L1210 morphological change (pointed cells); format: cell-based; settings: for % Pointed cells: percent of the living cells; for % Pointed Cells 1st: 27 h
Description: Referring to FIG. 1, in the L1210 assay some of the cells changed from being spherical (FIG. 1A) to ovoid with long points approximately […] apart (FIG. 1B). Several other forms have also been observed in assays of these extracts, including cells with points not […] apart (FIG. 1C), cells with more than two points (FIG. 1D), cells with a bulge (FIG. 1E) and cells with a bulge replacing one of the points (FIG. 1F). However, the form with two sharp, opposing points was by far the predominant and characteristic one observed. This type of morphological change had not previously been observed during the screening of over 1000 marine extracts.
As discussed above, the spisulosines caused a distinct morphological change in L1210 leukemia cells, in addition to cytotoxicity. This bioactivity, which was recorded as the percentage of living cells in which altered morphology was observed, could be observed sometimes as early as 13 h after the start of the assay and reached a maximum at 50–60 h, after which it decreased. […] The morphological effect was usually measured 30–35 h after the start of the assay and again about 24 h later, while the cytotoxicity was determined when the number of cells in the controls reached approximately 8000, usually in 3 days after the assay was begun. It should be noted that the pointed cells were live cells and that they were counted as such for the cytotoxicity reading. Also, assays in which 100% cytotoxicity was recorded may still have contained live cells (<0.5%) which may or may not have been pointed. All morphologically-changed cells were counted in the pointed cell percentage.
Morphologically-changed cells (FIGS. 1A–1F) were counted as living cells when determining the percent inhibition of growth. Morphological changes were assessed throughout the assay period. The percentage of pointed cells was determined by counting the number of altered cells in approximately 60 living cells. This percentage varied with the length of time the assay had been running. It generally reached its maximum about 50 hours after the start of the assay, but pointed cells could be observed as early as 13 hours after the start of the assay and could usually still be seen when the percent growth inhibition was measured. The percentages of pointed cells were often counted both after about 35 and after 55 hours. The time that this measurement was made is indicated with the data.

FADU = test: expanded in vitro screen, FADU; format: cell-based; settings: Homo sapiens, Pharnynx, solid
Description: as §1

786-0 = test: expanded in vitro screen, 786-0; format: cell-based; settings: Homo sapiens; 786-0, Renal, solid
Description: as §1

Vero cells [3] = test: microfilament and microtubule staining in Vero cells (Example B); format: cell-based; settings: 0.5 mM, 4 hours
Description: In order to identify the organization of the microfilament and microtubule organization in cells treated with spisulosine 285, cells were stained with phalloidin to detect actin polymers, and an antitubulin antibody to detect tubulin.
Vero cells were incubated in the presence (panel b, d) or absence (a, c) of 0.5 mM spisulosine 285 for 4 hours. Cells grown in coverslips were fixed with methanol at −20° C. (for tubulin antibody) or with 4% paraformaldehyde in phosphate buffered saline PBS (w/v) for phalloidin incubation. In the second case the cells were washed with 0.2% Triton X100 in PBS. The coverslips were washed with PBS and incubated for 1 hour at room temperature with the tubulin antibody (diluted 1/1000 in PBS) or with phalloidin (1 mg/ml). After washing with PBS the coverslips incubated with the tubulin antibody were overlaid with fluorescein or Texas red-labelled goat antimouse antibodies (diluted 1:50 in PBS). The coverslips were mounted with Mowiol and stored in the dark at 4° C. until observation.

P3HR1 = test: expanded in vitro screen, P3HR1; format: cell-based; settings: Homo sapiens, P3HR-1; P3HR1, Burkitts
Description: as §1

[4] = tested on: human prostate cancer (PC-3); test: xenograft model of human prostate cancer; format: in vivo; settings: for % T/C / Comments: intraperitoneal
Description: Spisulosine 285 was tested in in vivo studies against xenograft models of human prostate cancer (PC-3) and human renal cancer (MRI-H-121). These models use subcutaneously implanted solid human tumors that grow and increase in volume over time. The mean volume of tumor growth in control animals provides the basis for comparison. […] A level of activity that is less than 40% T/C is considered statistically significant. The doses of spisulosine used were given at the maximum tolerated, non lethal dose (MTD), ½ MTD and ¼ MTD. Delivery of the drug was by the intraperitoneal route.

HT-29 [5] = test: in vitro tumor cell line activity, HT-29; format: cell-based
ARH77 = test: expanded in vitro screen, ARH77; format: cell-based; settings: Homo sapiens, ARH-77; ARH77, Leukemia
Description: as §1

Vero cells [6] = test: effect of LPA on the action of spisulosine 285 in Vero cells (Example D); format: cell-based; settings: spisulosine alone, 24 hours
Excerpt: LPA is known to increase the level of stress fibers in cells by activation of the Rho protein. The effect of LPA on cells treated with spisulosine 285, and untreated cells was examined. […]

SK-OV-3 = test: expanded in vitro screen, SK-OV-3; format: cell-based; settings: Homo sapiens; SK-OV-3, Ovary, solid
Description: as §1

Vero cells [7] = test: Vero cell morphology (Example A); format: cell-based; settings: 0.5 mM, 4 hours
Description: Vero cells were grown in Dulbecco's modified Eagle medium supplemented with 10% foetal bovine serum. Spisulosine or LPA were added to these cultures to a concentration of […] and 50–10 mM respectively, from 4 to 24 hours. Cells were counted with the […] haemocytometer procedure using a solution of 0.4% Trypan blue in Hanks buffered Saline (Celis and Celis, “General Procedures for Tissue Culture in Cell Biology, a Laboratory Handbook” Academic Press Inc, Vol 1, pp. 5–17.)
Vero cells were incubated with spisulosine 285 (0.5 mM) for 4 hours. […] Panel c represents a higher magnification of the culture to which spisulosine was added.

P-388 = test: in vitro tumor cell line activity, P-388; format: cell-based

- IC50 (CCRF-SB): 1.05 nM
- IC50 (HT-29 [1]): 0.00256 nM
- IC50 (PANC-1): 0.00171 nM
- IC50 (H9): 0.031 nM
- IC50 (FADU): 0.00499 nM
- IC50 (786-0): 0.00275 nM
- IC50 (P3HR1): 0.0673 nM
- IC50 (ARH77): 0.0136 nM
- IC50 (SK-OV-3): 0.014 nM
Compound: CCCCCCCCCCCCCCC[C@@H](O)[C@H](C)N [Spisulosine 285, (2S,3R)-2-Amino-3-octadecanol]
- L1210 morphological alteration / pointed cell activity (in words) [2]: pointed cell activity
- % Pointed cells ([2]; 0.01 μg/ml): 1%
- % Pointed cells ([2]; 0.05 μg/ml): 71%
- % Pointed Cells 1st ([2]; 0.1 μg/ml): 33%
- % Pointed cells ([2]; 0.1 μg/ml): 62%
- % Pointed Cells 1st ([2]; 0.5 μg/ml): 56%
- % Pointed cells ([2]; 0.5 μg/ml): 97%
- % Pointed Cells 1st ([2]; 1 μg/ml): 64%
- % Pointed Cells 1st ([2]; 5 μg/ml): ad
- actin (phalloidin stain) (Vero cells [3]): dramatic decrease in actin
- microtubule network (tubulin antibody) (Vero cells [3]): remains in a polymerised form
- effect on tumour size (in words) ([4]; at higher doses): significantly reducing the tumour size
- % T/C ([4]; total dose 2.499 mg/kg, day 15): 223%
- % T/C ([4]; total dose 5.010 mg/kg, day 11): −1%
- Comments ([4]; total dose 5.010 mg/kg, day 11): stasis (complete remission)
- % T/C ([4]; total dose 9.990 mg/kg, day 11): −21%
- Comments ([4]; total dose 9.990 mg/kg, day 11): stasis (complete remission)
- active against tumor cell line in vitro (concentration) (HT-29 [5]): 0.05 mg/mL
- cell morphology (Vero cells [6]): appearance of rounded cells
- cell shape (Vero cells [7]): altered from polygonal (untreated cells, panel a) to a fusiform shape
- active against tumor cell line in vitro (concentration) (P-388): 0.01 mg/mL
